Data published in US11225477B2, “Inhibitors of influenza virus replication, application methods and uses thereof” (SUNSHINE LAKE PHARMA CO., LTD., priority 2015, dated 2022).

Experiments:
[1] = in vivo; details: SD, rat
Method: (§1) The compounds disclosed herein were administered in form of a saline solution containing 5% DMSO, 5% Kolliphor HS 15 and 90% Saline. […] Plasma samples were collected and stored at −20° C. or −70° C. until LC/MS/MS analysis.

[2] = SD, rat, in vivo; for F: po, 5 mg/kg
Method: as §1

[3] = system: virus H1N1 A/Weiss/43; experiment: microbe, parasite or virus in culture; assay type: cell-based; details: Influenza A virus, 120 h; MDCK cells, H1N1 A/Weiss/43, Scheme 2: 8 concentrations 50 nM to 0.023 nM, 5 days, CCK-8

CC(C)(C)[C@@H](CC(=O)O)Nc1nc(-c2c[nH]c3ncc(F)cc23)nc(-c2ccco2)c1F [Example 61, (R)-3-((5-fluoro-2-(5-fluoro-1H-pyrrolo[2,3-b]pyridin-3-yl)-6-(furan-2-yl)pyrimidin-4-yl)amino)-4,4-dimethylpentanoic Acid]
AUC(0-inf) ([1]; iv, 1 mg/kg): 4050 ng·h/mL | AUC(0-t) ([1]; iv, 1 mg/kg): 4030 ng·h/mL | Cmax ([1]; iv, 1 mg/kg): 8540 ng/mL | Tmax ([1]; iv, 1 mg/kg): 4.98 min | Vd ([1]; iv, 1 mg/kg): 0.585 L/kg | clearance ([1]; iv, 1 mg/kg): 4.17 mL/min/kg | half-life ([1]; iv, 1 mg/kg): 32.5 min | AUC(0-inf) ([1]; po, 5 mg/kg): 10700 ng·h/mL | AUC(0-t) ([1]; po, 5 mg/kg): 10400 ng·h/mL | Cmax ([1]; po, 5 mg/kg): 2710 ng/mL | Tmax ([1]; po, 5 mg/kg): 90 min | half-life ([1]; po, 5 mg/kg): 357 min | F [2]: 53.1%

O=C(O)C1C2CCC(CC2)C1Nc1nc(-c2c[nH]c3ncc(F)cc23)nc(-c2cc3ccccc3s2)c1F (racemic) [Example 55, (+/−)-trans-3-((6-(benzo[b]thiophen-2-yl)-5-fluoro-2-(5-fluoro-1H-pyrrolo [2,3-b]pyridin-3-yl)pyrimidin-4-yl)amino)bicyclo[2.2.2]octane-2-carboxylic Acid]
EC50 [3]: 0.874 nM

CC(C)n1ccc2c(NC3C4CCC(CC4)C3C(=O)O)nc(-c3c[nH]c4ncc(F)cc34)nc21 (racemic) [Example 25, (+/−)-trans-3-((2-(5-fluoro-1H-pyrrolo[2,3-b]pyridin-3-yl)-7-isopropyl-7H-pyrrolo[2,3-d]pyrimidin-4-yl)amino)bicyclo[2.2.2]octane-2-carboxylic Acid]
EC50 [3]: 0.26 nM

O=C(O)[C@H]1C2CCC(CC2)[C@@H]1Nc1cc(-c2ccco2)nc(-c2c[nH]c3nc(F)ccc23)n1 [Example 73, (2S,3S)-3-((2-(6-fluoro-1H-pyrrolo[2,3-b]pyridin-3-yl)-6-(furan-2-yl)pyrimidin-4-yl)amino)bicyclo[2.2.2]octane-2-carboxylic Acid]
AUC(0-inf) ([1]; iv, 1 mg/kg): 24800 ng·h/mL | AUC(0-t) ([1]; iv, 1 mg/kg): 24200 ng·h/mL | Cmax ([1]; iv, 1 mg/kg): 14800 ng/mL | Tmax ([1]; iv, 1 mg/kg): 4.98 min | Vd ([1]; iv, 1 mg/kg): 0.212 L/kg | clearance ([1]; iv, 1 mg/kg): 0.681 mL/min/kg | half-life ([1]; iv, 1 mg/kg): 84.6 min | AUC(0-inf) ([1]; po, 5 mg/kg): 52800 ng·h/mL | AUC(0-t) ([1]; po, 5 mg/kg): 50600 ng·h/mL | Cmax ([1]; po, 5 mg/kg): 9300 ng/mL | Tmax ([1]; po, 5 mg/kg): 90 min | half-life ([1]; po, 5 mg/kg): 335 min | F [2]: 42.6%

CC(C)n1ccc2c(N[C@H]3C4CCC(CC4)[C@@H]3C(=O)O)nc(-c3c[nH]c4ncc(F)cc34)nc21 [Example 78, (2S,3S)-3-((2-(5-fluoro-1H-pyrrolo[2,3-b]pyridin-3-yl)-7-isopropyl-7H-pyrrolo [2,3-d]pyrimidin-4-yl)amino)bicyclo[2.2.2]octane-2-carboxylic Acid]
EC50 [3]: 0.236 nM

O=C(O)C1C2CCC(CC2)C1Nc1cc(-c2cccc3c2oc2ccccc23)nc(-c2c[nH]c3ncc(F)cc23)n1 (racemic) [Example 18, (+/−)-trans-3-((6-(dibenzo[b,d]furan-4-yl)-2-(5-fluoro-1H-pyrrolo[2,3-b]pyridin-3-yl)pyrimidin-4-yl)amino)bicyclo[2.2.2]octane-2-carboxylic Acid]
AUC(0-inf) ([1]; iv, 1 mg/kg): 3190 ng·h/mL | AUC(0-t) ([1]; iv, 1 mg/kg): 3130 ng·h/mL | Cmax ([1]; iv, 1 mg/kg): 4470 ng/mL | Tmax ([1]; iv, 1 mg/kg): 4.98 min | Vd ([1]; iv, 1 mg/kg): 0.598 L/kg | clearance ([1]; iv, 1 mg/kg): 5.3 mL/min/kg | half-life ([1]; iv, 1 mg/kg): 262 min | AUC(0-inf) ([1]; po, 5 mg/kg): 6880 ng·h/mL | AUC(0-t) ([1]; po, 5 mg/kg): 6840 ng·h/mL | Cmax ([1]; po, 5 mg/kg): 1690 ng/mL | Tmax ([1]; po, 5 mg/kg): 120 min | half-life ([1]; po, 5 mg/kg): 223 min | F [2]: 43.1%

Cn1ccc2c(NC3C4CCC(CC4)C3C(=O)O)nc(-c3c[nH]c4ncc(F)cc34)nc21 (racemic) [Example 65, (+/−)-trans-3-((2-(5-fluoro-1H-pyrrolo[2,3-b]pyridin-3-yl)-7-methyl-7H-pyrrolo[2,3-d]pyrimidin-4-yl)amino)bicyclo[2.2.2]octane-2-carboxylic Acid]
AUC(0-inf) ([1]; iv, 1 mg/kg): 5360 ng·h/mL | AUC(0-t) ([1]; iv, 1 mg/kg): 5340 ng·h/mL | Cmax ([1]; iv, 1 mg/kg): 6830 ng/mL | Tmax ([1]; iv, 1 mg/kg): 4.98 min | Vd ([1]; iv, 1 mg/kg): 0.168 L/kg | clearance ([1]; iv, 1 mg/kg): 3.13 mL/min/kg | half-life ([1]; iv, 1 mg/kg): 57.9 min | AUC(0-inf) ([1]; po, 5 mg/kg): 12100 ng·h/mL | AUC(0-t) ([1]; po, 5 mg/kg): 12000 ng·h/mL | Cmax ([1]; po, 5 mg/kg): 7940 ng/mL | Tmax ([1]; po, 5 mg/kg): 25 min | half-life ([1]; po, 5 mg/kg): 68.4 min | F [2]: 44.9% | EC50 [3]: 0.66 nM

O=C(O)C1C2CCC(CC2)C1Nc1cc(-c2cc3ccccc3o2)nc(-c2c[nH]c3ncc(F)cc23)n1 (racemic) [Example 16, (+/−)-trans-3-((6-(benzofuran-2-yl)-2-(5-fluoro-1H-pyrrolo[2,3-b]pyridin-3-yl)pyrimidin-4-yl)amino)bicyclo[2.2.2]octane-2-carboxylic Acid]
EC50 [3]: 0.54 nM

O=C(O)C1C2CCC(CC2)C1Nc1cc(-c2ccco2)nc(-c2c[nH]c3ncc(F)cc23)n1 (racemic) [Example 9, (+/−)-trans-3-((2-(5-fluoro-1H-pyrrolo[2,3-b]pyridin-3-yl)-6-(furan-2-yl)pyrimidin-4-yl)amino)bicyclo[2.2.2]octane-2-carboxylic Acid]
AUC(0-inf) ([1]; iv, 1 mg/kg): 7350 ng·h/mL | AUC(0-t) ([1]; iv, 1 mg/kg): 7260 ng·h/mL | Cmax ([1]; iv, 1 mg/kg): 10900 ng/mL | Tmax ([1]; iv, 1 mg/kg): 4.98 min | Vd ([1]; iv, 1 mg/kg): 0.551 L/kg | half-life ([1]; iv, 1 mg/kg): 91.2 min | AUC(0-inf) ([1]; po, 5 mg/kg): 17500 ng·h/mL | AUC(0-t) ([1]; po, 5 mg/kg): 17400 ng·h/mL | Cmax ([1]; po, 5 mg/kg): 5270 ng/mL | Tmax ([1]; po, 5 mg/kg): 30 min | half-life ([1]; po, 5 mg/kg): 189 min | CL ([2]; iv, 1 mg/kg): 5.86 L/h/kg | F [2]: 47.5% | EC50 [3]: 0.066 nM

O=C(O)C1C2CCC(CC2)C1Nc1cc(C2CC2)nc(-c2c[nH]c3ncc(F)cc23)n1 (racemic) [Example 68, (+/−)-trans-3-((6-cyclopropyl-2-(5-fluoro-1H-pyrrolo[2,3-b]pyridin-3-yl)pyrimidin-4-yl)amino)bicyclo[2.2.2]octane-2-carboxylic Acid]
AUC(0-inf) ([1]; iv, 1 mg/kg): 2880 ng·h/mL | AUC(0-t) ([1]; iv, 1 mg/kg): 2760 ng·h/mL | Cmax ([1]; iv, 1 mg/kg): 3750 ng/mL | Tmax ([1]; iv, 1 mg/kg): 4.98 min | Vd ([1]; iv, 1 mg/kg): 0.551 L/kg | clearance ([1]; iv, 1 mg/kg): 5.86 mL/min/kg | half-life ([1]; iv, 1 mg/kg): 121 min | AUC(0-inf) ([1]; po, 5 mg/kg): 8330 ng·h/mL | AUC(0-t) ([1]; po, 5 mg/kg): 8310 ng·h/mL | Cmax ([1]; po, 5 mg/kg): 2960 ng/mL | Tmax ([1]; po, 5 mg/kg): 25 min | half-life ([1]; po, 5 mg/kg): 194 min | F [2]: 60.1%

O=C(O)[C@H]1C2CCC(CC2)C1Nc1cc(-c2ccccc2)nc(-c2c[nH]c3ncc(F)cc23)n1 (stereo in doubt) [Example 4a, (2S,3S)-3-((2-(5-fluoro-1H-pyrrolo[2,3-b]pyridin-3-yl)-6-phenylpyrimidin-4-yl)amino)bicyclo[2.2.2]octane-2-carboxylic Acid]
EC50 [3]: 0.17 nM

O=C(O)[C@H]1C2CCC(CC2)C1Nc1cc(-c2ccco2)nc(-c2c[nH]c3ncc(F)cc23)n1 (stereo in doubt) [Example 9a, (2S,3S)-3-((2-(5-fluoro-1H-pyrrolo[2,3-b]pyridin-3-yl)-6-(furan-2-yl)pyrimidin-4-yl)amino)bicyclo[2.2.2]octane-2-carboxylic Acid]
EC50 [3]: 0.039 nM

O=C(O)[C@H]1C2CCC(CC2)C1Nc1cc(-c2ccc([N+](=O)[O-])o2)nc(-c2c[nH]c3ncc(F)cc23)n1 (stereo in doubt) [Example 24a, (2S,3S)-3-((2-(5-fluoro-1H-pyrrolo[2,3-b]pyridin-3-yl)-6-(5-nitrofuran-2-yl)pyrimidin-4-yl)amino)bicyclo[2.2.2]octane-2-carboxylic Acid]
EC50 [3]: 0.744 nM

O=C(O)C1C2CCC(CC2)C1Nc1cc(-c2cccs2)nc(-c2c[nH]c3ncc(F)cc23)n1 (racemic) [Example 23, (+/−)-trans-3-((2-(5-fluoro-1H-pyrrolo[2,3-b]pyridin-3-yl)-6-(thiophen-2-yl)pyrimidin-4-yl)amino)bicyclo[2.2.2]octane-2-carboxylic Acid]
EC50 [3]: 0.104 nM

Cc1nc2[nH]cc(-c3nc(NC4C5CCC(CC5)C4C(=O)O)cc(-c4ccccc4)n3)c2cc1F (racemic) [Example 80, (+/−)-trans-3-((2-(5-fluoro-6-methyl-1H-pyrrolo[2,3-b]pyridin-3-yl)-6-phenylpyrimidin-4-yl)amino)bicyclo[2.2.2]octane-2-carboxylic Acid]
AUC(0-inf) ([1]; iv, 1 mg/kg): 3380 ng·h/mL | AUC(0-t) ([1]; iv, 1 mg/kg): 3320 ng·h/mL | Cmax ([1]; iv, 1 mg/kg): 5630 ng/mL | Tmax ([1]; iv, 1 mg/kg): 4.98 min | Vd ([1]; iv, 1 mg/kg): 1.5 L/kg | clearance ([1]; iv, 1 mg/kg): 4.94 mL/min/kg | half-life ([1]; iv, 1 mg/kg): 91.8 min | AUC(0-inf) ([1]; po, 5 mg/kg): 10600 ng·h/mL | AUC(0-t) ([1]; po, 5 mg/kg): 10100 ng·h/mL | Cmax ([1]; po, 5 mg/kg): 3130 ng/mL | Tmax ([1]; po, 5 mg/kg): 50 min | half-life ([1]; po, 5 mg/kg): 88.8 min | F [2]: 62.5%

O=C(O)C1C2CCC(CC2)C1Nc1nc(-c2c[nH]c3ncc(F)cc23)ncc1F (racemic) [Control VX-787 (racemization), (+/−)-trans-3-((5-fluoro-2-(5-fluoro-1H-pyrrolo[2,3-b]pyridin-3-yl)pyrimidin-4-yl)amino)bicyclo[2.2.2]octane-2-carboxylic acid, reference compound]
F [2]: 58.4%

O=C(O)C1C2CCC(CC2)C1Nc1nc(-c2c[nH]c3ncc(F)cc23)nc(C#Cc2ccccc2)c1F (racemic) [Example 63, (+/−)-trans-3-((5-fluoro-2-(5-fluoro-1H-pyrrolo[2,3-b]pyridin-3-yl)-6-phenylethynyl)pyrimidin-4-yl)amino)bicyclo[2.2.2]octane-2-carboxylic Acid]
AUC(0-inf) ([1]; iv, 1 mg/kg): 4750 ng·h/mL | AUC(0-t) ([1]; iv, 1 mg/kg): 4710 ng·h/mL | Cmax ([1]; iv, 1 mg/kg): 4990 ng/mL | Tmax ([1]; iv, 1 mg/kg): 4.98 min | Vd ([1]; iv, 1 mg/kg): 0.416 L/kg | clearance ([1]; iv, 1 mg/kg): 3.55 mL/min/kg | half-life ([1]; iv, 1 mg/kg): 231 min | AUC(0-inf) ([1]; po, 5 mg/kg): 15400 ng·h/mL | AUC(0-t) ([1]; po, 5 mg/kg): 15300 ng·h/mL | Cmax ([1]; po, 5 mg/kg): 3280 ng/mL | Tmax ([1]; po, 5 mg/kg): 120 min | half-life ([1]; po, 5 mg/kg): 215 min | F [2]: 65%

O=C(O)C1C2CCC(CC2)C1Nc1nc(-c2c[nH]c3ncc(F)cc23)nc(-c2ccco2)c1F (racemic) [Example 49, (+/−)-trans-3-((5-fluoro-2-(5-fluoro-1H-pyrrolo[2,3-b]pyridin-3-yl)-6-(furan-2-yl)pyrimidin-4-yl)amino)bicyclo[2.2.2]octane-2-carboxylic Acid]
EC50 [3]: 0.068 nM

O=C(O)C1C2CCC(CC2)C1Nc1nc(-c2c[nH]c3ncc(F)cc23)nc(-c2cc3ccccc3o2)c1F (racemic) [Example 54, (+/−)-trans-3-((6-(benzofuran-2-yl)-5-fluoro-2-(5-fluoro-1H-pyrrolo[2,3-b]pyridin-3-yl)pyrimidin-4-yl)amino)bicyclo[2.2.2]octane-2-carboxylic Acid]
EC50 [3]: 0.261 nM
